In experiment [1] the test system is Yersinia enterocolitica. Nature of the experiment: FACS analysis of desferrioxamine fluorescein binding and competition. As to the method: (§1) This procedure applies to Examples 25-27. For cell sorting assays, iron limited conditions were maintained by addition of dipyridyl to the culture (final concentration of […]). Cells were grown to mid-log phase (NB or LB broth), the siderophore conjugates added to 10-20 million CFU of bacterial cells to a final siderophore conjugate concentration of 2-3 uM (total volume=11 mL), and incubated for a period of 30 minutes. Competition was performed by adding a 100-fold excess of desferrioxamine (Yersinia) or pyoverdine PaA (Pseudomonas) to the cells 15 minutes prior to incubation with the siderophore conjugates. Fluorescently activated cell sorting (FACS) was performed on a FACS Caliber (BD Bio systems, Franklin Lakes, N.J.) cell sorter with both the forward scatter and side scatter in the log mode per manufactures guidelines for analyzing bacteria. Bacteria samples were diluted with PBS to achieve 200-400 counts per second.
In this case, fluorescence shift indicates binding of the fluorescein conjugate to the siderophore receptor on the bacterial surface; whereas, adding excess non-labeled ligand (competition) reduces the number of free binding sites prior to conjugate incubation. […] It is interesting to note that this compound was iron unloaded and thus consistent with unloaded siderophore binding reported by Schalk et al., Mol. Microbiol. 39: 351-360 (2001).

The test system of experiment [2] is Pseudomonas aeruginosa. Description: FACS analysis of pyoverdine peptide fluorescein binding and competition. The settings on record: 0.1 μM conjugate; 100-fold excess free pyoverdine. Here is the method: The x-axis indicates fluorescence intensity.
as §1
Cell studies using FACS analysis and Pseudomonas aeruginosa were performed essentially as described under Example 25 (see FIG. 10) to assess binding and competition of this molecule (concentrations ranged from 1 μM to 1 nM).

Experiment [3] has as its target T1, cell surface folate receptors (Mus musculus, UniProt P35846).
T1 construct: cell surface folate receptors on folate receptor positive M109 cells in culture; endogenous in cells; host or cells: M109 cells
Description: Fluorescence measurement of binding to folate receptor positive M109 cells in culture. Here is the method:
Texas Red C2-maleimide (Molecular Probes, Eugene, Oreg.) was dissolved in dimethyl sulfoxide (DMSO) (1 mg in 200 μl DMSO). A 1.4 molar equivalent (1 mg) of Folate-Cys was added to the solution and mixed for 4 hours at room temperature. Folate-Cys-Texas Red (Folate-Texas Red) was purified by reverse-phase HPLC on a C18 column at a flow rate of 1 ml/min. The mobile phase, consisting of 10 mM NH4HCO3 buffer, pH 7.0 (eluent A) and acetonitrile (eluent B), was maintained at a 99:1 A:B ratio for the first five minutes and then changed to 70:30 A:B in a linear gradient over the next 30 minutes followed by a 1:99 A:B linear gradient over the last 15 minutes. Folate-Cys-Texas Red eluted as two isomer peaks at 44.5 and 45.8 minutes. The product was confirmed by mass spectroscopy and the biologic activity was confirmed by fluorescence measurement of its binding to cell surface folate receptors on folate receptor positive M109 cells in culture.

*1 amine or outer side, *2 acyl side, *3 side chain or, on linkers, in order; H or OH if unused. Where a SMILES comes first, the peptide text is derived from it. Bridges are numbered along the chain shown (N, C = ends). [ ]: non-standard residue; d: D form. The star is where a group is joined. ξ: configuration not given here. X1 = O=C(O)CNC(=O)C(CCCCNC(=S)Nc1ccc(-c2c3ccc(=O)cc-3oc3cc(O)ccc23)c(C(=O)O)c1)N*; X2 = O=C(C1CCN[c+]2c(N[*:1])cc3cc(O)c(O)cc3n21)[*:2]; ξOrn(N(OH)CHO) = NC(CCCN(O)C=O)C(=O)O; Glutaryl = O=C(CCCC(=O)[*:2])[*:1]

T1 sequence (P35846 25-232): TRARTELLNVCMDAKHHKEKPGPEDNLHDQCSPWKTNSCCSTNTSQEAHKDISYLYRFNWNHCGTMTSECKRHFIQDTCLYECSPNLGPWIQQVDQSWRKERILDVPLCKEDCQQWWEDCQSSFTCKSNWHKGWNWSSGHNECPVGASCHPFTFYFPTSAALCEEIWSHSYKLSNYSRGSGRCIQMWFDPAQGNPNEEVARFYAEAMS

In the case of `CC(=O)N(O)CCCCCNC(=O)CCC(=O)NCCCCCNC(=O)CCC(=O)N(O)CCCCCNC(=S)Nc1ccc(-c2c3ccc(=O)cc-3oc3cc(O)ccc23)c(C(=O)O)c1` [desferrioxamine fluorescein], in experiment [1] (competition with a 100-fold excess of desferrioxamine), the “shift in fluorescence intensity with competition” value stood at 15%. The “shift in fluorescence intensity” value in experiment [1] (non-competed, 2 μM conjugate concentration, non-incubated control 1%) is given as about 50%. Regarding `CC(O)C1NC(=O)C(CCCN(O)C=O)NC(=O)C(NC(=O)C(CCCN(O)C=O)NC(=O)C(CO)NC(=O)C(CCCNC(=N)N)NC(=O)C(CO)NC(=O)C2CCN[c+]3c(NC(=O)CCCC(=O)NC(CCC(=O)O)C(=O)NC(CCCCNC(=S)Nc4ccc(-c5c6ccc(=O)cc-6oc6cc(O)ccc56)c(C(=O)O)c4)C(=O)NCC(=O)O)cc4cc(O)c(O)cc4n32)CCCCNC(=O)C(C(C)O)NC1=O` (stereo not shown) [Pyoverdine Peptide Fluorescein] ({X1-Glu-Glutaryl}-[X2]SRS[ξOrn(N(OH)CHO)]K[ξOrn(N(OH)CHO)]TT; lactam 6-C; configuration not given here), the binding and competition entry in experiment [2] is reported as “competition using free pyoverdine was detected”. As for `Nc1nc2ncc(CNc3ccc(C(=O)NC(CCC(=O)NC(CSC4CC(=O)N(CCNS(=O)(=O)c5ccc(C6=c7cc8c9c(c7Oc7c6cc6c%10c7CCCN%10CCC6)CCC[N+]=9CCC8)c(S(=O)(=O)[O-])c5)C4=O)C(=O)O)C(=O)O)cc3)nc2c(=O)[nH]1` (stereo not shown) [Folate-Cys-Texas Red], the “biologic activity (binding to cell surface folate receptors)” value in experiment [3] is listed as “confirmed”.

The record behind these values is US8795633B2, “Multiphoton in vivo flow cytometry method and device” (Purdue Research Foundation, priority 2005, dated 2014).
